Laboratory results published in ChEMBL document CHEMBL4813981, “Synthesis and in vitro antibacterial activity of new aminothiazole-oximepiperidone cephalosporins” (2021).
Converted amounts (≈) assume the structure as drawn.

How the values were obtained:
Type in all cases: functional
[1] = system: Escherichia coli; assay: Antibacterial activity against Escherichia coli NCTC 13353 assessed as reduction in bacterial growth
[2] = system: Acinetobacter baumannii; assay: Antibacterial activity against Carbapenem- resistant Acinetobacter baumannii 17-3 assessed as reduction in bacterial growth
[3] = system: Acinetobacter baumannii; assay: Antibacterial activity against Carbapenem- resistant Acinetobacter baumannii 17-6 assessed as reduction in bacterial growth
[4] = system: Acinetobacter baumannii; assay: Antibacterial activity against Carbapenem- resistant Acinetobacter baumannii 17-9 assessed as reduction in bacterial growth
[5] = system: Acinetobacter baumannii; assay: Antibacterial activity against Carbapenem- resistant Acinetobacter baumannii 17-10 assessed as reduction in bacterial growth
[6] = system: Acinetobacter baumannii; assay: Antibacterial activity against Carbapenem- resistant Acinetobacter baumannii 17-11 assessed as reduction in bacterial growth
[7] = system: Acinetobacter baumannii; assay: Antibacterial activity against Carbapenem- resistant Acinetobacter baumannii 17-13 assessed as reduction in bacterial growth
[8] = system: Klebsiella pneumoniae; assay: Antibacterial activity against Carbapenem- resistant Klebsiella pneumoniae KR 15-4 assessed as reduction in bacterial growth
[9] = system: Klebsiella pneumoniae; assay: Antibacterial activity against Carbapenem- resistant Klebsiella pneumoniae KR 15-7 assessed as reduction in bacterial growth
[10] = system: Klebsiella pneumoniae; assay: Antibacterial activity against Carbapenem- resistant Klebsiella pneumoniae KR 15-8 assessed as reduction in bacterial growth
[11] = system: Klebsiella pneumoniae; assay: Antibacterial activity against Carbapenem- resistant Klebsiella pneumoniae KR 15-12 assessed as reduction in bacterial growth
[12] = system: Klebsiella pneumoniae; assay: Antibacterial activity against Carbapenem- resistant Klebsiella pneumoniae KR 15-13 assessed as reduction in bacterial growth
[13] = system: Pseudomonas aeruginosa; assay: Antibacterial activity against Carbapenem- resistant Pseudomonas aeruginosa 17-1 assessed as reduction in bacterial growth
[14] = system: Klebsiella pneumoniae; assay: Antibacterial activity against Carbapenem- sensitive Klebsiella pneumoniae 17-1 overexpressing extended spectrum beta-lactamases assessed as reduction in bacterial growth
[15] = system: Klebsiella pneumoniae; assay: Antibacterial activity against Carbapenem- sensitive Klebsiella pneumoniae 17-2 overexpressing extended spectrum beta-lactamases assessed as reduction in bacterial growth
[16] = system: Klebsiella pneumoniae; assay: Antibacterial activity against Carbapenem- sensitive Klebsiella pneumoniae 17-6 overexpressing extended spectrum beta-lactamases assessed as reduction in bacterial growth
[17] = system: Klebsiella pneumoniae; assay: Antibacterial activity against Carbapenem- sensitive Klebsiella pneumoniae 17-9 overexpressing extended spectrum beta-lactamases assessed as reduction in bacterial growth
[18] = system: Klebsiella pneumoniae; assay: Antibacterial activity against Carbapenem- sensitive Klebsiella pneumoniae 17-13 overexpressing extended spectrum beta-lactamases assessed as reduction in bacterial growth
[19] = system: Klebsiella pneumoniae; assay: Antibacterial activity against Carbapenem- sensitive Klebsiella pneumoniae 17-15 overexpressing extended spectrum beta-lactamases assessed as reduction in bacterial growth
[20] = system: Klebsiella pneumoniae; assay: Antibacterial activity against ESBLs negative Carbapenem-sensitive Klebsiella pneumoniae 17-17 assessed as reduction in bacterial growth
[21] = system: Klebsiella pneumoniae; assay: Antibacterial activity against ESBLs negative Carbapenem-sensitive Klebsiella pneumoniae 17-20 assessed as reduction in bacterial growth
[22] = system: Escherichia coli; assay: Antibacterial activity against ESBLs positive Carbapenem-sensitive Escherichia coli 17-5 assessed as reduction in bacterial growth
[23] = system: Escherichia coli; assay: Antibacterial activity against ESBLs positive Carbapenem-sensitive Escherichia coli 17-6 assessed as reduction in bacterial growth
[24] = system: Escherichia coli; assay: Antibacterial activity against ESBLs positive Carbapenem-sensitive Escherichia coli 17-10 assessed as reduction in bacterial growth
[25] = system: Escherichia coli; assay: Antibacterial activity against ESBLs positive Carbapenem-sensitive Escherichia coli 17-12 assessed as reduction in bacterial growth
[26] = system: Escherichia coli; assay: Antibacterial activity against ESBLs positive Carbapenem-sensitive Escherichia coli 17-15 assessed as reduction in bacterial growth
[27] = system: Escherichia coli; assay: Antibacterial activity against ESBLs positive Carbapenem-sensitive Escherichia coli 17-17 assessed as reduction in bacterial growth
[28] = system: Escherichia coli; assay: Antibacterial activity against ESBLs negative Carbapenem-sensitive Escherichia coli 17-7 assessed as reduction in bacterial growth
[29] = system: Enterobacter cloacae; assay: Antibacterial activity against Enterobacter cloacae 17-1 assessed as reduction in bacterial growth
[30] = system: Enterobacter cloacae; assay: Antibacterial activity against Enterobacter cloacae 17-3 assessed as reduction in bacterial growth
[31] = system: Enterobacter cloacae; assay: Antibacterial activity against Enterobacter cloacae 17-4 assessed as reduction in bacterial growth
[32] = system: Klebsiella aerogenes; assay: Antibacterial activity against Enterobacter aerogenes 17-2 assessed as reduction in bacterial growth
[33] = system: Klebsiella aerogenes; assay: Antibacterial activity against Enterobacter aerogenes 17-5 assessed as reduction in bacterial growth
[34] = system: Klebsiella aerogenes; assay: Antibacterial activity against Enterobacter aerogenes 15-3 assessed as reduction in bacterial growth
[35] = system: Klebsiella aerogenes; assay: Antibacterial activity against Enterobacter aerogenes 15-6 assessed as reduction in bacterial growth
[36] = system: Pseudomonas aeruginosa; assay: Antibacterial activity against Carbapenem- sensitive Pseudomonas aeruginosa 17-7 assessed as reduction in bacterial growth
[37] = system: Pseudomonas aeruginosa; assay: Antibacterial activity against Carbapenem- sensitive Pseudomonas aeruginosa 17-22 assessed as reduction in bacterial growth

Q: With `C[C@@H](O)[C@H]1C(=O)N2C(C(=O)O)=C(S[C@@H]3CN[C@H](C(=O)N(C)C)C3)[C@H](C)[C@H]12` [MEROPENEM] as the molecule, how does the MIC [1] read?
A: Its MIC is less than 0.03 µg/mL.

Q: What about the MIC [2] of the same molecule?
A: The MIC was 16 µg/mL (≈ 41.7 µM).

Q: What about the MIC [3] of the same molecule?
A: The MIC was 32 µg/mL (≈ 83.4 µM).

Q: What about the MIC [4] of the same molecule?
A: The MIC was 32 µg/mL (≈ 83.4 µM).

Q: And the MIC [5]?
A: Its MIC is 16 µg/mL (≈ 41.7 µM).

Q: What about the MIC [6] of the same molecule?
A: The MIC was 32 µg/mL (≈ 83.4 µM).

Q: What about the MIC [7] of the same molecule?
A: The MIC was 64 µg/mL (≈ 167 µM).

Q: What about the MIC [8] of the same molecule?
A: The MIC was greater than 64 µg/mL.

Q: And the MIC [9]?
A: The MIC was greater than 64 µg/mL.

Q: What about the MIC [10] of the same molecule?
A: Its MIC is greater than 64 µg/mL.

Q: And the MIC [11]?
A: The MIC was 32 µg/mL (≈ 83.4 µM).

Q: And the MIC [12]?
A: The MIC was 64 µg/mL (≈ 167 µM).

Q: And the MIC [13]?
A: Its MIC is 16 µg/mL (≈ 41.7 µM).

Q: And the MIC [14]?
A: The MIC was 0.06 µg/mL (≈ 0.156 µM).

Q: What about the MIC [15] of the same molecule?
A: Its MIC is less than 0.03 µg/mL.

Q: What about the MIC [16] of the same molecule?
A: Its MIC is less than 0.03 µg/mL.

Q: What about the MIC [17] of the same molecule?
A: Its MIC is 0.06 µg/mL (≈ 0.156 µM).

Q: And the MIC [18]?
A: The MIC was less than 0.03 µg/mL.

Q: What about the MIC [19] of the same molecule?
A: Its MIC is less than 0.03 µg/mL.

Q: What about the MIC [20] of the same molecule?
A: Its MIC is less than 0.03 µg/mL.

Q: And the MIC [21]?
A: Its MIC is less than 0.03 µg/mL.

Q: What about the MIC [22] of the same molecule?
A: The MIC was less than 0.03 µg/mL.

Q: And the MIC [23]?
A: Its MIC is less than 0.03 µg/mL.

Q: What about the MIC [24] of the same molecule?
A: The MIC was less than 0.03 µg/mL.

Q: And the MIC [25]?
A: Its MIC is less than 0.03 µg/mL.

Q: What about the MIC [26] of the same molecule?
A: Its MIC is less than 0.03 µg/mL.

Q: What about the MIC [27] of the same molecule?
A: Its MIC is less than 0.03 µg/mL.

Q: And the MIC [28]?
A: The MIC was less than 0.03 µg/mL.

Q: And the MIC [29]?
A: The MIC was less than 0.03 µg/mL.

Q: What about the MIC [30] of the same molecule?
A: Its MIC is 0.06 µg/mL (≈ 0.156 µM).

Q: What about the MIC [31] of the same molecule?
A: The MIC was less than 0.03 µg/mL.

Q: What about the MIC [32] of the same molecule?
A: The MIC was 0.06 µg/mL (≈ 0.156 µM).

Q: And the MIC [33]?
A: Its MIC is 0.125 µg/mL (≈ 0.326 µM).

Q: And the MIC [34]?
A: The MIC was 4 µg/mL (≈ 10.4 µM).

Q: And the MIC [35]?
A: The MIC was 0.06 µg/mL (≈ 0.156 µM).

Q: What about the MIC [36] of the same molecule?
A: Its MIC is 0.06 µg/mL (≈ 0.156 µM).

Q: What about the MIC [37] of the same molecule?
A: Its MIC is 1 µg/mL (≈ 2.61 µM).
